# Test results published in patent publication US7410975B2, “Small molecule toll-like receptor (TLR) antagonists” (Coley Pharmaceutical Group, Inc., priority 2003, dated 2008).
# Structures can show the parent of a compound that is named as a salt.
# Target: T1, human TLR9 (hTLR9) (Homo sapiens, UniProt Q9NR96)
# T1 construct: expressed in transfected cells
# T1 sequence (Q9NR96 26-1032): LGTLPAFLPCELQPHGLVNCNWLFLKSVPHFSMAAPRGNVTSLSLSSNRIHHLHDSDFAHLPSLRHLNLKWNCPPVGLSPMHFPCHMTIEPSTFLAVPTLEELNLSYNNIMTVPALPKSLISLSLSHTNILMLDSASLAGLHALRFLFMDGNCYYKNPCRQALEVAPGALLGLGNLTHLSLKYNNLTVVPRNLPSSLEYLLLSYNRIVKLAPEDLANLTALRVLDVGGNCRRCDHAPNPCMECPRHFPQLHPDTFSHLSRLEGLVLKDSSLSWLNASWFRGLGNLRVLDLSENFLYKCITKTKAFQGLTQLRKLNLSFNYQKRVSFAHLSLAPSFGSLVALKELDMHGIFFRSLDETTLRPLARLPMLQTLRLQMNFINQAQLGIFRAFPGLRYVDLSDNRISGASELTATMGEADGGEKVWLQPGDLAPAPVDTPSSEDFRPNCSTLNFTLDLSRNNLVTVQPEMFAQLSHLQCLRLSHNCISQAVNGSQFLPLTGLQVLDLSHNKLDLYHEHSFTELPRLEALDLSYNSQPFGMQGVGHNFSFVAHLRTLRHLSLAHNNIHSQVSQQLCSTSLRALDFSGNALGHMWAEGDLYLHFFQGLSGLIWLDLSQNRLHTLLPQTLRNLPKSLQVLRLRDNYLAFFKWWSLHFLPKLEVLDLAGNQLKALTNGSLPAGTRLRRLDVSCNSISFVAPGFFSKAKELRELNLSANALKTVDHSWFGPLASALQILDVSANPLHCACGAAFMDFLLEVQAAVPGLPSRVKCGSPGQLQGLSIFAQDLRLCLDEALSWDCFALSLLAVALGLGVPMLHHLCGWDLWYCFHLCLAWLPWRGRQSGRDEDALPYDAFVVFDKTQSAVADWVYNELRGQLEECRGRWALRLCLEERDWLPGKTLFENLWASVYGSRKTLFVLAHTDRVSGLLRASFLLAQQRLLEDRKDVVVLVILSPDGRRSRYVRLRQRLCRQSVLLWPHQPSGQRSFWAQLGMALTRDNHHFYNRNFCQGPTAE
# Assay: Antagonist screen, hTLR9-NFκB-293 cells, 6× NF-κB-luciferase reporter, with EC50 of CpG ODN 2006
# Format: cell-based
# Conditions: compound at 0.5, 5, 50 μg/ml; EC50 concentration of CpG ODN 2006; 16 h; NF-κB-luciferase
# How it was run: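 Luciferase fold induction was compared with the ligand-alone baseline, and antagonism was scored by the lowest concentration giving clear down-regulation.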
row,SMILES,"hTLR9 (inhibitory effect, antagonist score)"
1,"CN1CCc2cccc3c2[C@H]1Cc1ccc(O)c(O)c1-3.Cl [compound 101, Apomorphinehydrochloride (R, —)]",12 (compounds for which there was clear down regulation at 5 μg/ml and 50 μg/ml)
2,"CC(C)(C)c1ccc(C(O)CCCN2CCC(C(O)(c3ccccc3)c3ccccc3)CC2)cc1 (stereo not shown) [compound 138, Terfenadine]",12 (compounds for which there was clear down regulation at 5 μg/ml and 50 μg/ml)
3,"CN(C)C(=O)C(CCN1CCC(O)(c2ccc(Cl)cc2)CC1)(c1ccccc1)c1ccccc1 [compound 144, Loperamidehydrochloride]",12 (compounds for which there was clear down regulation at 5 μg/ml and 50 μg/ml)
4,"COc1cc2c(cc1O)C[C@H]1c3c(cc(O)c(OC)c3-2)CCN1C [compound 600, Boldine]",12 (compounds for which there was clear down regulation at 5 μg/ml and 50 μg/ml)
5,"CN1CCc2cc3c(c4c2C1Cc1ccccc1-4)OCO3.Cl (stereo not shown) [compound 669, Remerine hydrochloride]",— (compounds for which there was no clear down regulation even at 50 μg/ml)
6,"COc1cc2nc(N3CCN(C(=O)C4CCCO4)CC3)nc(N)c2cc1OC.Cl (stereo not shown) [compound 751, Terazosin hydrochloride]","13 (compounds for which there was clear down regulation at 0.5 μg/ml, 5 μg/ml, and 50 μg/ml)"
7,"COc1cc2nc(N3CCN(C(=O)C4COc5ccccc5O4)CC3)nc(N)c2cc1OC.CS(=O)(=O)O (stereo not shown) [compound 858, Doxazosin mesylate]","13 (compounds for which there was clear down regulation at 0.5 μg/ml, 5 μg/ml, and 50 μg/ml)"
8,CCN(CC)CCCC(C)Nc1nc(/C=C/c2ccc(Cl)cc2)nc2cc3ccccc3cc12 (stereo not shown) [compound 2000],"13 (compounds for which there was clear down regulation at 0.5 μg/ml, 5 μg/ml, and 50 μg/ml)"
9,CCN(CC)CCCNc1nc(-c2ccccc2)nc2ccccc12 [compound 2001],"13 (compounds for which there was clear down regulation at 0.5 μg/ml, 5 μg/ml, and 50 μg/ml)"

# Same assay, conditions: hTLR9-NFκB-293 cells, with EC50 of CpG ODN 2006; compound at 0.5, 5 and 50 μg/ml
row,SMILES,hTLR9 (inhibitory effect)
1,"COc1cc2cc3c4cc(OC)c(OC)cc4cc[n+]3c(C)c2cc1OC [compound 431, Coralyne chloridehydrate]","13 (compounds for which there was clear down regulation at 0.5 μg/ml, 5 μg/ml, and 50 μg/ml)"
2,"COc1ccc(Cc2nccc3cc(OC)c(OC)cc23)cc1OC.Cl [compound 583, Papaverinehydrochloride]",12 (compounds for which there was clear down regulation at 5 μg/ml and 50 μg/ml)
3,"COc1ccc2cc3[n+](cc2c1OC)CCc1cc2c(cc1-3)OCO2.[Cl-] [compound 586, Berberine chloride]",— (compounds for which there was no clear down regulation even at 50 μg/ml)
4,"CC[N+](C)(CC)CCC[n+]1c(-c2ccccc2)c2cc(N)ccc2c2ccc(N)cc21.[I-].[I-] [compound 792, Propidium iodide]",12 (compounds for which there was clear down regulation at 5 μg/ml and 50 μg/ml)
5,"CN(C)CCN(Cc1ccc(Cl)cc1)c1ccccn1.Cl [compound 807, Chloro-pyraminehydrochloride]",12 (compounds for which there was clear down regulation at 5 μg/ml and 50 μg/ml)
6,"CCOc1ccc(Cc2nccc3cc(OCC)c(OCC)cc23)cc1OCC.Cl [compound 830, Ethaverinehydrochloride]",11 (compounds for which there was clear down regulation only at 50 μg/ml)
7,O=c1c2c(nc(NCCO)n1-c1ccccc1)-c1ccccc1CC21CCCC1 [compound 891],11 (compounds for which there was clear down regulation only at 50 μg/ml)
8,O=c1c2c(nc(NCCO)n1Cc1ccccc1)-c1ccccc1CC21CCCC1 [compound 926],11 (compounds for which there was clear down regulation only at 50 μg/ml)
9,"CN1CCc2c1nc1ccccc1c2N [compound 990, 1-Methyl-2,3-dihydro-1H-pyrrolo[2,3-b]quinolin-4-ylamine]","13 (compounds for which there was clear down regulation at 0.5 μg/ml, 5 μg/ml, and 50 μg/ml)"
10,CN1CCc2c1nc1ccccc1c2NC(=O)CN1CCCCCC1 [compound 1003],"13 (compounds for which there was clear down regulation at 0.5 μg/ml, 5 μg/ml, and 50 μg/ml)"
11,"Cc1ccc2nc3c(c(N)c2c1)CCN3C [compound 1091, 1,6-Dimethyl-2,3-dihydro-1H-pyrrolo[2,3-b]quinolin-4-ylamine]","13 (compounds for which there was clear down regulation at 0.5 μg/ml, 5 μg/ml, and 50 μg/ml)"
12,Cc1ccc(-n2c(NCCO)nc3c(c2=O)C2(CCCCC2)Cc2ccccc2-3)cc1 [compound 1137],11 (compounds for which there was clear down regulation only at 50 μg/ml)
13,"CN1CCc2c1nc1ccc(Br)cc1c2N [compound 1142, 6-Bromo-1-methyl-2,3-dihydro-1H-pyrrolo[2,3-b]quinolin-4-ylamine]","13 (compounds for which there was clear down regulation at 0.5 μg/ml, 5 μg/ml, and 50 μg/ml)"
14,O=C1c2ccc(S(=O)(=O)c3ccc4c(c3)C(=O)N(c3ccccn3)C4=O)cc2C(=O)N1c1ccccn1 [compound 1163],11 (compounds for which there was clear down regulation only at 50 μg/ml)
15,"CN1CCCCc2c1nc1ccccc1c2N [compound 1185, 1-Methyl-2,3,4,5-tetrahydro-1H-azepino[2,3-b]quinolin-6-ylamine]","13 (compounds for which there was clear down regulation at 0.5 μg/ml, 5 μg/ml, and 50 μg/ml)"
16,CN1CCc2c1nc1ccccc1c2NC(=O)CN1CCN(c2ccccc2)CC1 [compound 1212],12 (compounds for which there was clear down regulation at 5 μg/ml and 50 μg/ml)
17,Cn1c(NN)nc2c(c1=O)C1(CCCC1)Cc1ccccc1-2 [compound 1213],— (compounds for which there was no clear down regulation even at 50 μg/ml)
18,"Nc1c2c(nc3ccccc13)N(Cc1ccccc1)CC2 [compound 1217, 1-Benzyl-2,3-dihydro-1H-pyrrolo[2,3-b]quinolin-4-ylamine]","13 (compounds for which there was clear down regulation at 0.5 μg/ml, 5 μg/ml, and 50 μg/ml)"
19,CCCCCCN(CCCCCC)CC(=O)Nc1c2c(nc3ccccc13)N(C)CC2 [compound 1224],11 (compounds for which there was clear down regulation only at 50 μg/ml)
20,O=C(CN1CCCC1)Nc1c2c(nc3ccccc13)N(c1ccccc1)CC2 [compound 1244],12 (compounds for which there was clear down regulation at 5 μg/ml and 50 μg/ml)
21,NNc1nc2c(c(=O)n1C1CCCC1)C1(CCCC1)Cc1ccccc1-2 [compound 1248],— (compounds for which there was no clear down regulation even at 50 μg/ml)
22,NNc1nc2c(c(=O)n1-c1ccccc1)C1(CCCC1)Cc1ccccc1-2 [compound 1320],"13 (compounds for which there was clear down regulation at 0.5 μg/ml, 5 μg/ml, and 50 μg/ml)"
23,O=c1[nH]c(NCCO)nc2c1C1(CCCC1)Cc1ccccc1-2 [compound 1322],— (compounds for which there was no clear down regulation even at 50 μg/ml)
24,CCCCCCCCCCCC(=O)Nc1c2c(nc3ccccc13)N(C)CC2 [compound 1334],11 (compounds for which there was clear down regulation only at 50 μg/ml)
25,O=C1c2ccc(Oc3ccc(S(=O)(=O)c4ccc(Oc5ccc6c(c5)C(=O)N(c5ccccn5)C6=O)cc4)cc3)cc2C(=O)N1c1ccccn1 [compound 1367],— (compounds for which there was no clear down regulation even at 50 μg/ml)
